Source: article PMC11801377, “A uniquely efficacious type of CFTR corrector with complementary mode of action” (Science Advances, 2024)

Target: F508del-CFTR (Homo sapiens, UniProt P13569, DEL508-508)
Assay: CFTR immunoblotting in HEK-TREx cells expressing F508del-CFTR
Format: cell-based
Set-up: expressed in transfected cells; host or cells: T-REx HEK293
Settings: 48 hours, IDOR-3 2 μM, IDOR-4 0.4 μM
Description: The human CFTR expressing HEK cell pools with the mutations described below were generated by integrase-mediated homologous recombination of the CFTR sequence into the T-REx HEK293 background (Thermo Fisher Scientific). This expression system allows the tetracycline-inducible expression of genes of interest from one defined insertion site. Parental T-REx-HEK293 cells were cultivated in growth medium: Dulbecco’s modified Eagle’s medium + GlutaMAX-I (#31966, Life Technologies), 10% dialyzed FBS (Gibco, #26400), penicillin (100 U/ml), streptomycin (100 μg/ml), hygromycin B (0.1 mg/ml; Life Technologies), blasticidin (5 μg/ml; Invitrogen, #R210-01), and 0.1 mM nonessential amino acid solution (Invitrogen, #11140-035). Recombinant T-REx-HEK-CFTR cells were generated by lipofectamine transfection (Life Technologies) of plasmids containing mutated versions of CFTR (RefSeq NM_000492) and then cultivated in selection medium [growth medium containing Geneticin (1 mg/ml) (Invitrogen, #10131-027) instead of hygromycin]. The plasmid constructs were synthetized by GENEART (Thermo Fisher Scientific) and designed with the WT CFTR intron 5 to 6 (880 nucleotides) to prevent leaky expression issues during the cloning process in bacteria. […]

F508del-CFTR, sequence (P13569 with tags, fused parts or gaps DEL508-508): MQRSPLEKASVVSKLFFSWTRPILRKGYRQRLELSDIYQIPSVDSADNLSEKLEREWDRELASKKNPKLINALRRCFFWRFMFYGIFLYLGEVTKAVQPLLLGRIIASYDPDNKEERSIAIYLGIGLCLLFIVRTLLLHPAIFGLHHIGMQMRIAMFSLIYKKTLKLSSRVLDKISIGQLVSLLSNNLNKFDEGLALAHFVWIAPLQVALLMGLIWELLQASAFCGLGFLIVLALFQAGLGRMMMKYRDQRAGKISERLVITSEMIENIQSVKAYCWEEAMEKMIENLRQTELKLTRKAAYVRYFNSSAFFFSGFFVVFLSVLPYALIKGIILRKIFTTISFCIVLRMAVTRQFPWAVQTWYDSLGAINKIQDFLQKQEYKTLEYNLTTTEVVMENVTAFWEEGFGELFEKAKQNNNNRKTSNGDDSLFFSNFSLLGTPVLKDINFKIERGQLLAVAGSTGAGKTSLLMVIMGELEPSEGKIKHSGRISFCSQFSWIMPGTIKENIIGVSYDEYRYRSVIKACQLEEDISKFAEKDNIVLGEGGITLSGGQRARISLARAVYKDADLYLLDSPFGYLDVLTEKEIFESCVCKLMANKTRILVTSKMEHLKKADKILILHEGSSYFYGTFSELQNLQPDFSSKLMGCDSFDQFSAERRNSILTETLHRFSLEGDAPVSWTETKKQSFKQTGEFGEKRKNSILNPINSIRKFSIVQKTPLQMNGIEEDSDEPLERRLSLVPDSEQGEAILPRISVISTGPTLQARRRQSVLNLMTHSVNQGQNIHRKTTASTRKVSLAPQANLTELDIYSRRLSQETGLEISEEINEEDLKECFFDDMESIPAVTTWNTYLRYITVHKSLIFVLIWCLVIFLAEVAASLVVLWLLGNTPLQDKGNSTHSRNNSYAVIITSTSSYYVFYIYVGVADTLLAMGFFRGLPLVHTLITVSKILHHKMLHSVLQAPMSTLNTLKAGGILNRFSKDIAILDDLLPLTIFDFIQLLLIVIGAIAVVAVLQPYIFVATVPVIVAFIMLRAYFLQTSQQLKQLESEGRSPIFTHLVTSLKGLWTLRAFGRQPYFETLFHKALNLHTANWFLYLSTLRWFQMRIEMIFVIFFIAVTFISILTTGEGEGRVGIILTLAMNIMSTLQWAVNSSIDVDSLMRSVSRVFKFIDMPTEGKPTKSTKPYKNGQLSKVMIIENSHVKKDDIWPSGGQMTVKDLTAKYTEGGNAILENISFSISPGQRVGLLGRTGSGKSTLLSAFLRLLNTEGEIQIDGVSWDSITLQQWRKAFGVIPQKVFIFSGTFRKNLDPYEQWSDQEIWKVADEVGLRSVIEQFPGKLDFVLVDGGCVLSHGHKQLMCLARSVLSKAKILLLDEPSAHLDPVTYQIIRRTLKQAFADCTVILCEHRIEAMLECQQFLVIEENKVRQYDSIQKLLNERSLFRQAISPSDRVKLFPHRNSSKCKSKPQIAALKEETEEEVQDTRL

COc1cc(CCNC(=O)C2CC(=O)N(C)C(CC(C)C)C(=O)N3CCCCC3C(=O)NC(Cc3ccccc3)COc3ccc4ncc(F)cc4c3C(=O)N2)on1 (stereo not shown) [IDOR-3]
increase in C-band expression: 9 fold
